Measured values published in patent publication US20220030850A1, “CRYOPRESERVATIVE COMPOSITIONS AND METHODS” (REGENTS OF THE UNIVERSITY OF MINNESOTA, priority 2015, published 2022).

Columns and labels:
Format in all cases: cell-based, human
mesenchymal stem cells = assay: 96-well plate freezing, post-thaw scaled raw recovery (calcein-AM/PI); conditions: 10% DMSO at 1° C./min, control
Text: FIG. 2 and FIG. 3 relate to a three-component TGE solution tested with Jurkat cells. […] These components were selected based on pre-screening experiments performed to identify combinations with high potential recovery. The DE algorithm was programmed to output 27 vector solutions per generation with a weight=0.85 and a crossover=1. Experimental testing and result normalization was similar to the methods described above.
In both screening and DE algorithm experiments, cells were frozen in 96-well plates to limit the number of cells and volumes of reagent necessary, and to increase the number of samples that could be tested at one time. Solutions were made at 2× their final concentration in distilled H2O (diH2O). […]
After 96 well plates were thawed, calcein-acetoxymethyl (AM)/propidium iodide was added to each well and the wells were covered from light and placed in a 37° C. incubator for 30 minutes to allow the live cells to cleave calcein-AM. The plates were then analyzed for fluorescence on a plate reader. Raw fluorescence values were used to calculate the number of live and dead cells present in each well by correlating to a control curve of unfrozen cells. The live cell recovery was calculated by dividing the number of live cells present in thawed samples (calcein-AM plate reader fluorescence) by the number of live cells seeded pre-freeze (AO/PI counts). […]

H9-MSCs = assay: Gene expression by qRT-PCR immediately post-thaw; conditions: GAPDH internal control, FIG. 23
Experimental: Certain genes within select gene categories were analyzed using qRT-PCR. H9-MSCs subjected to different freezing approaches were assayed immediately post-thaw for the expression of genes related to trophic factor secretion such as HGF, VEGF, FGF2, CXCL12 (SDF-1α), mesodermal lineage markers TWIST1, TWIST2 (DERMO1), MSX2, the anti-apoptotic marker BCL2, surface markers for cell adhesion such as CD106 and CD54, the osmotic regulator marker GAL-1, and stress-response markers such as EGR1 and NFE2L2 (NRF2).
Pellets of thawed samples described above were resuspended in QIAZOL lysis agent (Qiagen, Hilden, Germany) for further RNA isolation and processing. […] The purified RNA was quantified using a NANODROP 2000 (Therm Fisher Scientific, Waltham, Mass.) device to determine concentration.
For qRT-PCR studies, 800 ng of RNA was used for reverse transcription to make cDNA using SuperScript III First-Strand Synthesis System (Thermo Fisher Scientific, Waltham, Mass.). cDNA was diluted to a concentration of 4 ng/μl and real-time qPCR was performed with 10 ng cDNA per 10 μl reaction with QuantiTect SYBR Green PCR Kit (Qiagen, Hilden, Germany) on CFX384 Real-Time PCR detection system (Bio-Rad Laboratories, Inc., Hercules, Calif.). […] were analyzed using the comparative CT method (Schmittgen et al., 2008. Nat Protoc 3:1101-1108) with GAPDH as an internal control gene.

MSCs = assay: High throughput factorial screening with Linear Mixed Effects statistical analysis of recovery; conditions: statistical analysis of sugar and cooling rate
Experimental: In another evaluation, cells were combined with factorial combinations of the components listed in Table 5, using one component from each category. Plates including cells and solutions were frozen at cooling rates of 1′C/min, 3′C/min, 5′C/min, or 10′C/min.
Recovery was calculated by dividing the number of live cells post thaw—calculated using a control curve correlating calcein-acetoxymethyl (AM) fluorescence to cell count—by the number of live cells seeded pre-freeze (AO/PI counts taken prior to freezing). Recovery was normalized by dividing by the DMSO recovery on each plate, then multiplying by a standard DMSO recovery for each cooling rate. This normalized recovery was used to compare samples between different plates and different cooling rates.
Statistical analysis of the data was performed using a Linear Effects Model. The model associated with best fit was determined using Bayesian Information Criteria. […] The ten best combinations for Jurkats are summarized in Table 6 below, while the eight best combinations for MSCs are summarized in Table 7.
To assess the importance of the four explanatory variables of interest (Sugar, Rate, Additive and Alcohol), without neglecting the variation between each batch and between each plate within the batches, we sought to find the best Linear Mixed Effects (LME) model. With yi the i'th outcome of the response, Xi the corresponding values of the covariates, the LME model is defined as
To select the most fitting model, we performed backward elimination based on the Bayesian Information Criterion (BIC) starting with a model that includes all variables and second order interactions. Furthermore, we included two random variables, one to catch the effect of the batch, and one to catch the effect of each plate within the batch—i.e., the full model is: […]

| SMILES | recovery for MSCs (mesenchymal stem cells) [%] | CXCL12 expression (H9-MSCs) | TWIST2 expression (H9-MSCs) | cooling rate at which cells performed better with the sugar (MSCs) |
| --- | --- | --- | --- | --- |
| C[S+](C)[O-] [DMSO, dimethyl sulfoxide] | 21 | notable change | elevated | – |
| OC[C@H]1O[C@@](CO)(O[C@H]2O[C@H](CO)[C@@H](O)[C@H](O)[C@H]2O)[C@@H](O)[C@@H]1O [Sucrose] | – | – | – | 3 °C and 5° C./min |
